This assay has as its system phagosomes of RAW264.7 macrophage cells. Nature of the assay: Effect of V-ATPase inhibition on phagosome acidification and proteolysis, monitored in single phagosomes with Janus pH-proteolysis reporter particles. The following applies: for duration of proteolysis: onset of proteolysis to start of Rhodamine 110 intensity decrease, without ConA 24±10. Type of assay: cell-based. As for the experimental part: Dual color imaging started 5 minutes after Janus particle probes were added to cells and lasted for approximately 45 minutes. After particle internalization, the fluorescence intensity of the pH reporter increased first, followed by a similar intensity increase of the proteolysis reporter, indicating the progress of maturation (FIG. 6A). It was noted that some […] slowly diffused into the cell cytoplasm by the end of imaging, causing a slightly elevated fluorescence in the cell. This is expected because small dye molecules can passively diffuse across the phagosome membrane.
ConcanamycinA (ConA), a V-ATPase inhibitor, was added to disrupt acidification of phagosomes and its effect on proteolytic activities was monitored. […] The fluorescence decrease was caused by the continuous diffusion of Rhodamine 110, already in the phagosome lumen prior to the ConA addition, into the cell cytoplasm. After ConA addition, Rhodamine 110 lost by diffusion was not replaced by the generation of more.
To quantify the effect of ConA on proteolysis, duration of proteolysis was measured. In cells without ConA treatment, this was measured as the time from the onset of proteolysis (tproteolysis) to the start of the intensity plateau. In cells treated with ConA, this was measured as the time from the onset of proteolysis (tproteolysis) to the time when the Rhodamine 110 intensity started to decrease (FIG. 7C). Phagosome proteolysis in cells without ConA treatment lasted for 24±10 minutes on average (FIG. 7C). However, the duration of proteolysis was shorted to 16±5 minutes in the presence of 100 nM ConA and 10±4 minutes with 500 nM ConA.
In all phagosomes examined (N=21), proteolysis stopped within a short time after termination of acidification. […] This is consistent with the observation noted above that proteolysis started when the phagosome acidified to a threshold pH of 5.8±0.7. […] With the Janus reporter particle, it was identified that an acidic lumen is a prerequisite for the start of proteolytic activities in phagosomes, and their temporal relationship inside single phagosomes was quantitatively determined; data impossible to obtain by prior methods. Thus the bifunctional Janus pH-proteolysis reporter particle was able to detect both a disruption in phagosome acidification and a disruption in proteolytic activity inside a single phagosome caused by the presence of the V-ATPase inhibitor ConA.
Carboxylate polystyrene particles (500 nm) were purchased from Polysciences (Warrington, PA, USA). CF™ 640R NHS ester (succinimidyl ester), fluorescent peptide Rhodamine 110, bis-(N-CBZ-L-phenylalanyl-L-arginine amide) dihydrochloride (Z-FR-R110) were purchased from Biotium (Fremont, CA, USA). Amine-functionalized polystyrene particle (3 μm), carboxylated fluorophores (500 nm, ex/em 580/605), Alexa Fluor 568 NHS ester (succinimidyl ester), Alexa Fluor 647 NHS ester (succinimidyl ester), pHrodo™ iFL Red STP Ester, EZ-Link™ NHS-Biotin, sulfo-NHS (N-succinimidyl ester), streptavidin, and lipopolysaccharides from Escherichia coli (LPS) were purchased from ThermoFisher Scientific (Waltham, MA, USA). Bovine serum albumin (BSA), trypsin, nigericin sodium salt, and immunoglobulin G (IgG) from rabbit plasma were purchased from MilliporeSigma (St. Louis, MO, USA). 1-(3-Dimethylaminopropyl)-3-ethylcarbodiimide hydrochloride (EDC) was purchased from Alfa Aesar (Haverhill, MA, USA). Biotin pentylamine was purchased from Soltec BioScience (Beveraly MA). Concanamycin A was purchased from Santa Cruz Biotechnology (Dallas, TX, USA). Raw 264.7 macrophage cells were purchased from ATCC (Manassas, VA, USA). Ringer's solution (pH=7.2, 10 mM HEPES, 10 mM glucose, 155 mM NaCl, 2 mM NaH2PO4, 5 mM KCl, 2 mM CaCl2, 1 mM MgCl2) was used for live-cell imaging. Potassium-rich solution (135 mM KCl, 2 mM […], 1.2 mM CaCl2, 0.8 mM MgSO4) was used for intracellular pH calibration. […]

On to `C/C=C/[C@H]1O[C@@](O)([C@@H](C)[C@H](O)[C@H](C)[C@H]2OC(=O)/C(OC)=C/C(C)=C/[C@@H](C)[C@@H](O)[C@@H](CC)[C@@H](O)[C@H](C)C/C(C)=C/C=C/[C@@H]2OC)C[C@@H](O[C@H]2C[C@@H](O)[C@H](OC(N)=O)[C@@H](C)O2)[C@@H]1C` [ConA, Concanamycin A], for which the “phagosome acidification and proteolytic activity” value (100 nM ConA added to cells before the onset of acidification) was “failed to acidify or exhibit proteolytic activities”. Also, the duration of proteolysis is, setting by setting: (100 nM ConA, N=11) 16 ± 5 min; (500 nM ConA, N=10) 10 ± 4 min. For the same compound, where the note is “ConA added after acidification had started, within minutes after acidification stopped”, the “phagosome proteolysis (Rhodamine 110 fluorescence)” value is “phagosome proteolysis also stopped”. In addition, the phagosome acidification entry (ConA added to cells after acidification had started, lumen pH started to increase) was “stopped acidifying”. In addition, the “average pH of single phagosomes at the termination point of proteolysis” value (ConA-treated cells, N=21 phagosomes) was found to be 5.1±0.4.

Values taken from US20240385187A1, “BI-[…] REPORTER PARTICLE AND METHODS FOR MAKING AND USING THE SAME” (The Trustees of Indiana University, priority 2021, published 2024).
